{"source": "patent US7465556B2", "about": "“Method of immunoassay tartrate resistant acid phosphatase 5b and kit to be used therein” (Nitto Boseki Co., Ltd., priority 2003, dated 2008)", "molecules": {"B1": {"name": "TRACP 5b (Homo sapiens) (protein)", "chain": "ATPALRFVAVGDWGGVPNAPFHTAREMANAKEIARTVQILGADFILSLGDNFYFTGVQDINDKRFQETFEDVFSDRSLRKVPWYVLAGNHDHLGNVSAQIAYSKISKRWNFPSPFYRLHFKIPQTNVSVAIFMLDTVTLCGNSDDFLSQQPERPRDVKLARTQLSWLKKQLAAAREDYVLVAGHYPVWSIAEHGPTHCLVKQLRPLLATYGVTAYLCGHDHNLQYLQDENGVGYVLSGAGNFMDPSKRHQRKVPNGYLRFHYGTEDSLGGFAYVEISSKEMTVTYIEASGKSLFKTRLPRRARP"}, "B2": {"name": "TRACP 5a (Homo sapiens) (protein)", "chain": "B1 chain", "notes": "TRACP 5a derived from human serum and eluted from a HiTrap Heparin HP column; from tissue; host or cells: human serum, heparin column fraction"}}, "key": {"TRACP 5b [1]": {"system": "TRACP 5b", "test": "Enzymatic activity of TRACP 5b bound to immobilized anti-TRACP 5b antibody plate, end-point absorbance", "assay_type": "biochemical, human", "method": "(§1) The pH of a buffer solution containing a substrate CNPP was varied from 5.6 to 6.8 and the activity of TRACP 5b and TRACP 5a for this substrate was assayed. This substrate buffer solution had the following composition: CNPP 5 mM, Mes 0.1 M and sodium tartrate 40 mM. Its pH was adjusted to values varying from 5.6 to 6.8 by steps of 0.2. TRACP 5b and TRACP 5a used as samples were prepared by separating human serum by the use of a Heparin column and concentrating a fraction corresponding to a peak due to each of TRACP 5a and TRACP 5b. As TRACP 5a, there was used a sample having such a concentration that its absorbance was 0.8 at pH 5.6 (the optimum for TRACP 5a). As TRACP 5b, there was used a sample having such a concentration that its absorbance was 0.8 at pH 6.4 (the optimum for TRACP 5b). As to a method for the assay, a plate having an anti-TRACP 5b antibody Trk27 immobilized thereon was used and 100 μl of each sample was added to each well and stirred with shaking at room temperature for 1 hour. Then, the reaction solution was discarded and each well was washed three times with 200 μl of Tris buffer containing 0.05% Tween 20. Thereafter, 100 μl of the substrate buffer solution was added to each well and shaken for 30 seconds, followed by incubation in an incubator at 37° C. for 1 hour. Then, 50 μl of 0.2N NaOH was added to each well to terminate the enzyme reaction and the absorbance of the reaction solution was measured with a microtiter plate reader. Under such conditions, the optimum pH for TRACP 5b was about 6.4 and that for TRACP 5a was 5.6.\n(§2) Absorbance values due to the reaction of a buffer solution containing a substrate CNPP with each of TRACP 5a and TRACP 5b at pHs 6.2, 6.4, 6.6 and 6.8 were compared with results obtained in a comparative example using a buffer solution (pH 6.1) containing, as a substrate, PNPP that is considered suitable for the assay of TRACP 5b. According to the method disclosed in Japanese Patent Application Kohyo No. 2002-510050, the composition of this PNPP substrate buffer solution was as follows: PNPP 8 mM, sodium acetate 0.1M, sodium tartrate 40 mM, pH 6.1. As a sample of TRACP 5b, the same sample as in Example 1 was used. As a sample of TRACP 5a, a sample was used which had been prepared so that in the comparative example (PNPP was used at pH 6.1), a value for TRACP 5a might be one-tenth that for TRACP 5b according to the data disclosed in Japanese Patent Application Kohyo No. 2002-510050. The same assay procedure as in Example 1 was carried out and absorbance was used as an indication of the enzymatic activity."}, "TRACP 5a [2]": {"target": "T1, TRACP 5a (Homo sapiens, UniProt P13686)", "T1 construct": "TRACP 5a derived from human serum and eluted from a HiTrap Heparin HP column; from tissue; host or cells: human serum, heparin column fraction", "T1 sequence (P13686 22-325)": "B1 chain", "settings": "pH 5.2; according to Clin. Chem., 47(1), 74-80; cited from earlier work"}, "TRACP 5a [3]": {"target": "T1, TRACP 5a", "test": "Enzymatic activity of TRACP 5a bound to immobilized anti-TRACP 5b antibody plate, end-point absorbance", "assay_type": "biochemical", "method": "as §1, §2"}, "TRACP 5b [4]": {"target": "T2, TRACP 5b (Homo sapiens, UniProt P13686)", "T2 sequence (P13686 22-325)": "B1 chain", "settings": "pH 5.8; according to Clin. Chem., 47(1), 74-80; cited from earlier work"}, "TRACP 5b [5]": {"system": "TRACP 5b", "test": "Enzymatic activity of TRACP 5b bound to immobilized anti-TRACP 5b antibody plate, end-point absorbance", "assay_type": "biochemical, human", "settings": "pH 6.9"}, "[6]": {"substrate": "O=[N+]([O-])c1ccc(OP(=O)(O)O)c(Cl)c1", "test": "Km measurement of substrate with TRACP 5b", "assay_type": "biochemical, human", "settings": "other: pH 6.4", "method": "(§3) In order to investigate the difference between TRACP 5b and TRACP 5a in reactivity with 2-chloro-4-nitrophenylphosphoric acid (CNPP), Km for each of them was measured.\n(§4) That is, for the assay of TRACP 5b, CNPP used in the present invention is more advantageous than PNPP from the viewpoint of affinity and specificity."}, "[7]": {"substrate": "O=[N+]([O-])c1ccc(OP(=O)(O)O)c(Cl)c1", "test": "Km measurement of substrate with TRACP 5a", "assay_type": "biochemical, human", "settings": "other: pH 5.6", "method": "as §3, §4"}, "[8]": {"settings": "pH 6.1, PNPP 8 mM, sodium acetate 0.1M, sodium tartrate 40 mM"}}}
{"molecule": "O=[N+]([O-])c1ccc(OP(=O)(O)O)cc1", "note": "[PNPP, p-nitrophenylphosphoric acid, reference compound]", "values": [{"measurement": "TRACP 5b/5a ratio", "setting": "TRACP 5b [1]; [8]", "value": 10}, {"measurement": "absorbance (enzymatic activity), sample TRACP 5b", "setting": "TRACP 5b [1]; [8]", "value": 0.981}, {"measurement": "Km", "setting": "TRACP 5a [2]", "value": 1900, "unit": "µM"}, {"measurement": "absorbance (enzymatic activity), sample TRACP 5a", "setting": "TRACP 5a [3]; pH 6.1, PNPP 8 mM, sodium acetate 0.1M, sodium tartrate 40 mM, 5a sample prepared to give one-tenth of 5b value", "value": 0.098}, {"measurement": "Km", "setting": "TRACP 5b [4]", "value": 7000, "unit": "µM"}]}
{"molecule": "O=[N+]([O-])c1ccc(OP(=O)(O)O)c(Cl)c1", "note": "[CNPP, 2-chloro-4-nitrophenylphosphoric acid]", "values": [{"measurement": "TRACP 5b/5a ratio", "setting": "TRACP 5b [1]; pH 6.2", "value": 13}, {"measurement": "absorbance (enzymatic activity), sample TRACP 5b", "setting": "TRACP 5b [1]; pH 6.2", "value": 0.802}, {"measurement": "TRACP 5b/5a ratio", "setting": "TRACP 5b [1]; pH 6.4", "value": 17}, {"measurement": "absorbance (enzymatic activity), sample TRACP 5b", "setting": "TRACP 5b [1]; pH 6.4", "value": 0.811}, {"measurement": "TRACP 5b/5a ratio", "setting": "TRACP 5b [1]; pH 6.6", "value": 18}, {"measurement": "absorbance (enzymatic activity), sample TRACP 5b", "setting": "TRACP 5b [1]; pH 6.6", "value": 0.674}, {"measurement": "TRACP 5b/5a ratio", "setting": "TRACP 5b [5]", "value": 16}, {"measurement": "absorbance (enzymatic activity), sample TRACP 5b", "setting": "TRACP 5b [5]", "value": 0.401}, {"measurement": "optimum pH for TRACP 5a", "setting": "TRACP 5a [3]; CNPP 5 mM, Mes 0.1 M, sodium tartrate 40 mM, pH 5.6 to 6.8, 37° C. 1 hour", "value": 5.6}, {"measurement": "absorbance (enzymatic activity), sample TRACP 5a", "setting": "TRACP 5a [3]; pH 6.2", "value": 0.062}, {"measurement": "absorbance (enzymatic activity), sample TRACP 5a", "setting": "TRACP 5a [3]; pH 6.4", "value": 0.047}, {"measurement": "absorbance (enzymatic activity), sample TRACP 5a", "setting": "TRACP 5a [3]; pH 6.6", "value": 0.038}, {"measurement": "absorbance (enzymatic activity), sample TRACP 5a", "setting": "TRACP 5a [3]; pH 6.9", "value": 0.025}]}
{"molecule": "B1", "values": [{"measurement": "Km", "setting": "[6]", "value": 1500, "unit": "µM"}]}
{"molecule": "B2", "values": [{"measurement": "Km", "setting": "[7]", "value": 3500, "unit": "µM"}]}
